Test results reported in patent US20050107386A1, “Methods of treating diseases and disorders by targeting multiple kinases” (priority 2003, published 2005).

What was measured:
MAPKAP-K2(h) = MAPKAP-K2(h) (Homo sapiens, UniProt P49137); assay: MAPKAP-K2(h) kinase assay; type: biochemical; settings: 3 μM; percent of control kinase activity
Experimental: (§1) Six compounds (presumptive single agents) were tested against a panel of 50 kinases. The results are presented in Table 2; numbers for each kinase indicate the percent of control kinase activity in the presence of a 3μM concentration of the indicated agent.
(§2) Agents that target two or more different kinases are useful in the methods of the invention as described elsewhere herein. Such compounds may be identified, and their effect on certain kinases may be identified, using the assays briefly described below in Examples 4-83. Each of these assays was carried out as described in Davies et al., Biochem. J., 351:95-105 (2000). All assays were carried out at 10 μM ATP unless otherwise noted.
(§3) In a final reaction volume of 25 μl, MAPKAP-K2 (h) (5-10 mU) is incubated with 50 mM Na-β-glycerophosphate pH 7.5, 0.1 mM EGTA, 30 μM […] (SEQ ID NO:11), 10 mM MgAcetate and [γ-^33P-ATP] (Specific activity approx. 500 cpm/pmol, concentration as required). The reaction is initiated by the addition of Mg^2+ [γ-^33P-ATP]. After incubation for 40 minutes at room temperature, the reaction is stopped by the addition of 5 μl of a 3% phosphoric acid solution. 10 μl of the reaction is then spotted onto a P30 filtermat and washed three times for 5 minutes in 75 mM phosphoric acid and once in methanol prior to drying and scintillation counting.

MAPK2(h) = MAPK2(h) (Homo sapiens, UniProt P28482); assay: MAPK2(h) kinase assay; type: biochemical; settings: 3 μM; percent of control kinase activity
MAPK2(h), sequence (P28482 whole entry): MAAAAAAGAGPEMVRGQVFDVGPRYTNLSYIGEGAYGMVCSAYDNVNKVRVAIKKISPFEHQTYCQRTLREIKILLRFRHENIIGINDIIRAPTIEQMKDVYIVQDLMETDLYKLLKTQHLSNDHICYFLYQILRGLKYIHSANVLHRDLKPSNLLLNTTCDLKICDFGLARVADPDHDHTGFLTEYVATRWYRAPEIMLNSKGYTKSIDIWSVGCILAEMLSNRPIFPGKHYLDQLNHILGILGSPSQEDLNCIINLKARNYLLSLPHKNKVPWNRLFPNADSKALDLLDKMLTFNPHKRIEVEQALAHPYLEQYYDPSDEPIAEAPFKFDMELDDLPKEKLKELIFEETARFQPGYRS
Experimental: as §1, §2
In a final reaction volume of 25 μl, MAPK2(h) (5-10 mU) is incubated with 25 mM Tris pH 7.5, 0.02 mM EGTA, 0.33 mg/ml myelin basic protein, 10 mM MgAcetate and [γ-^33P-ATP] (specific activity approx. 500 cpm/pmol, concentration as required). The reaction is initiated by the addition of Mg^2+ [γ-^33P-ATP]. After incubation for 40 minutes at room temperature, the reaction is stopped by the addition of 5 μl of a 3% phosphoric acid solution. 10 μl of the reaction is then spotted onto a P30 filtermat and washed three times for 5 minutes in 75 mM phosphoric acid and once in methanol prior to drying and scintillation counting.

MSK1(h) = MSK1(h) (Homo sapiens, UniProt O75582); assay: MSK1(h) kinase assay; type: biochemical; settings: 3 μM; percent of control kinase activity
MSK1(h), sequence (O75582 whole entry): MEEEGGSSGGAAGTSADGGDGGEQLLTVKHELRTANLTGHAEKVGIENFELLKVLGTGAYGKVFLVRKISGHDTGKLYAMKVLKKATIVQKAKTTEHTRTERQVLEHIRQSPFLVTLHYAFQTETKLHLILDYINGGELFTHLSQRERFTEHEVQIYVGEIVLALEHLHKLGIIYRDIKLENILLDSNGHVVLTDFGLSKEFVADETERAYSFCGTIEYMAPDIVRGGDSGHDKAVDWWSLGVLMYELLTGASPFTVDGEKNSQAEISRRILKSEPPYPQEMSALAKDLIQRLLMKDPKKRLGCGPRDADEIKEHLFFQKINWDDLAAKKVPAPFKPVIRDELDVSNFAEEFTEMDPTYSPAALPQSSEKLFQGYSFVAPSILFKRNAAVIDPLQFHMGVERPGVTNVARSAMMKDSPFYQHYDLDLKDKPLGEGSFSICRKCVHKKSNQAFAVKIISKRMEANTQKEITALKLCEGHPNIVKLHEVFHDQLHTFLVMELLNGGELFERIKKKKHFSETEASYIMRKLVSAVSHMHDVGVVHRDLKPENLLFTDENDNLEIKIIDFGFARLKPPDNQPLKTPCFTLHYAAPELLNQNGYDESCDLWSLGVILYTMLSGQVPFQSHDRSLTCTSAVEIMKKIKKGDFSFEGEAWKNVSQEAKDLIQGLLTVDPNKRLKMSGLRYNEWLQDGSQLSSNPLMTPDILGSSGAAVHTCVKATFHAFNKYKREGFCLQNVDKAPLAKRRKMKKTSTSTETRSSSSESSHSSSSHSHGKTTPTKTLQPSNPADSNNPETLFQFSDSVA
Experimental: as §1, §2
In a final reaction volume of 25 μl, MSK1 (h) (5-10 mU) is incubated with 8 mM MOPS pH 7.0, 0.2 mM EDTA, 30 μM […] (SEQ ID NO:2), 10 mM MgAcetate and [γ-^33P-ATP] (specific activity approx. 500 cpm/pmol, concentration as required). The reaction is initiated by the addition of Mg^2+ [γ-^33P-ATP]. After incubation for 40 minutes at room temperature, the reaction is stopped by the addition of 5 μl of a 3% phosphoric acid solution. 10 μl of the reaction is then spotted onto a P30 filtermat and washed three times for 5 minutes in 75 mM phosphoric acid and once in methanol prior to drying and scintillation counting.

IGF-1R(h) = IGF-1R(h) (Homo sapiens, UniProt P08069); assay: IGF-1R(h) kinase assay; type: biochemical; settings: 3 μM; percent of control kinase activity
IGF-1R(h), sequence (P08069 31-1367): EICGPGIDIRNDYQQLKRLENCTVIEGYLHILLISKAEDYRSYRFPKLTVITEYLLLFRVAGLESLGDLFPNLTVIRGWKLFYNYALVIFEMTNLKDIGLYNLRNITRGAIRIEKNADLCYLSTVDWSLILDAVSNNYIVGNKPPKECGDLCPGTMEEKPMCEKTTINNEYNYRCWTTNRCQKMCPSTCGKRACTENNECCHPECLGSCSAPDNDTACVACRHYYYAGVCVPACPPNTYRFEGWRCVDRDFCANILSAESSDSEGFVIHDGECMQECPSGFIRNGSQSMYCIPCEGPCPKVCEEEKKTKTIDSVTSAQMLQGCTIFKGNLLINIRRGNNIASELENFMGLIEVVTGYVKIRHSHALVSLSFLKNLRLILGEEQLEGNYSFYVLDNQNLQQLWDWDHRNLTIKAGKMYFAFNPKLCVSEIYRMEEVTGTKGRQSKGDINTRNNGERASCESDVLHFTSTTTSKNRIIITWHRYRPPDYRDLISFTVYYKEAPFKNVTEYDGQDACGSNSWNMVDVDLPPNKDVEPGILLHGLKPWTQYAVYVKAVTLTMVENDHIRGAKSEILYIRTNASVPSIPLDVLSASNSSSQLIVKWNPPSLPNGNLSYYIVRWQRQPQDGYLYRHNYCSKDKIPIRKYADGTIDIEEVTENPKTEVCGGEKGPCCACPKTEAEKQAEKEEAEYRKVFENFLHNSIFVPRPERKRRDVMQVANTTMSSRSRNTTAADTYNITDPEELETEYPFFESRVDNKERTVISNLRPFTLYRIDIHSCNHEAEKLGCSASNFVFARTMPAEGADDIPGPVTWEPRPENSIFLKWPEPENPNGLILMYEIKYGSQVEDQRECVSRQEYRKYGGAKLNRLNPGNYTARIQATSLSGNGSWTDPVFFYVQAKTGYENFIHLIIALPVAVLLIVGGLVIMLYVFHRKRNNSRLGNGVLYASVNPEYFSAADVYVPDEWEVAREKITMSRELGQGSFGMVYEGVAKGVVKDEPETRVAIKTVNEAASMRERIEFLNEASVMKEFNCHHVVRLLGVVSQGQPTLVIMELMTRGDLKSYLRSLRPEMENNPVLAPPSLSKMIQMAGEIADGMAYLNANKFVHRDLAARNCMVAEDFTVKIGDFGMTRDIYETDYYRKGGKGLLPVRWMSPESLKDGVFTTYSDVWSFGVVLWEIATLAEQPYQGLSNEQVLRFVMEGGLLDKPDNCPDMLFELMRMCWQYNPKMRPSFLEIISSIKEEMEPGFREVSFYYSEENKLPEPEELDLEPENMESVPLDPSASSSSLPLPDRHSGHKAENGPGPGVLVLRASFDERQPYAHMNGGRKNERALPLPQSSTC
Experimental: as §1, §2
as §3, with “μl, IGF-IR” for “μl, MAPKAP-K2”, “mM Tris” for “mM Na-β-glycerophosphate”, “EGTA, 0.1 mM NaVanadate, 0.1% β-mercaptoethanol, 250” for “EGTA, 30”, “ID NO:16), 10 mM MnCl2,” for “ID NO:11),”, “[γ-^33P-ATP] (specific” for “[γ-^33P-ATP] (Specific”

CDK1/cyclinB(h) = CDK1/cyclinB(h) (Homo sapiens, UniProt P06493); assay: CDK1/cyclinB(h) kinase assay; type: biochemical; settings: for Inhibitory activity (% of control), CDK1/cyclinB(h): 3 μM, percent of control kinase activity
CDK1/cyclinB(h), sequence (P06493 whole entry): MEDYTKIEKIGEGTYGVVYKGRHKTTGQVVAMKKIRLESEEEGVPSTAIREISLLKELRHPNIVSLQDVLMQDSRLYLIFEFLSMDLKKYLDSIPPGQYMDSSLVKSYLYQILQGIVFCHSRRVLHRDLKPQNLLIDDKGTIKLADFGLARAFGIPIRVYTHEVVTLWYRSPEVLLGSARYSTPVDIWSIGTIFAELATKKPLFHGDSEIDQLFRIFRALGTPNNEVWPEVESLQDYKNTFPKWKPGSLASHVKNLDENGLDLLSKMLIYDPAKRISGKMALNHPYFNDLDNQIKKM
CDK1/cyclinB(h), sequence (P14635 whole entry partner): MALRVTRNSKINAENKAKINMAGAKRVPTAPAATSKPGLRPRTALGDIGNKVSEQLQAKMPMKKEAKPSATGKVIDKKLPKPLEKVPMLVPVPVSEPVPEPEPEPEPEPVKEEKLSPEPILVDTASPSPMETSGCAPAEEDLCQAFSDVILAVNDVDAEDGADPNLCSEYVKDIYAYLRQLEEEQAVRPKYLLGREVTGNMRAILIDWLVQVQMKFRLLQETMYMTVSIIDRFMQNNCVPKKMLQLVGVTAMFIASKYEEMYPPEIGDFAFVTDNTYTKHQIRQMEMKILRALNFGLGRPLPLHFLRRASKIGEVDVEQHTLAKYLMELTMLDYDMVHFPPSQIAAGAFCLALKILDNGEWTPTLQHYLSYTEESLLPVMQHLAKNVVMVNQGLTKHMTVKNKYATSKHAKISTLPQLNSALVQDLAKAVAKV
Experimental: as §1, §2
(§4) In a final reaction volume of 25 μl, CDK1/cyclinB (h) (5-10 mU) is incubated with 8 mM MOPS pH 7.0, 0.2 mM EDTA, 0.1 mg/ml histone H1, 10 mM MgAcetate and [γ-^33p-ATP] (specific activity approx. 500 cpm/pmol, concentration as required). The reaction is initiated by the addition of Mg^2+ [γ-33 P-ATP]. After incubation for 40 minutes at room temperature, the reaction is stopped by the addition of 5 μl of a 3% phosphoric acid solution. 10 μl of the reaction is then spotted onto a P30 filtermat and washed three times for 5 minutes in 75 mM phosphoric acid and once in methanol prior to drying and scintillation counting.

AMPK(r) = AMPK(r) kinase assay; type: biochemical, rat; settings: 3 μM; percent of control kinase activity
Experimental: as §1, §2
as §3, with “AMPK(r)” for “MAPKAP-K2 (h)”, “Hepes” for “Na-β-glycerophosphate”, “7.4, 1” for “7.5, 0.1”, “DTT, 0.02% Brij-35, 200 μM AMP, 200” for “EGTA, 30”, “NO:4),” for “NO:11),”

CDK3/cyclinE(h) = CDK3/cyclinE(h) (Homo sapiens, UniProt Q00526); assay: CDK3/cyclinE(h) kinase assay; type: biochemical; settings: 3 μM; percent of control kinase activity
CDK3/cyclinE(h), sequence (Q00526 whole entry): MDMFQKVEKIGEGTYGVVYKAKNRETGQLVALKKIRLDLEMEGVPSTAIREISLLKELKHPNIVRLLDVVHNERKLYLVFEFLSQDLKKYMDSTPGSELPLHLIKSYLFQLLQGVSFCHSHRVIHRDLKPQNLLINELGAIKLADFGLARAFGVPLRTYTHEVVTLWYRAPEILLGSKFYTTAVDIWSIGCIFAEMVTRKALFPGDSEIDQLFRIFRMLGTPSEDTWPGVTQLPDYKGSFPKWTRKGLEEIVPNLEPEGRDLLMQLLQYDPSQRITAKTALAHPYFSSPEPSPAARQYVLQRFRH
CDK3/cyclinE(h), sequence (P24864 whole entry partner): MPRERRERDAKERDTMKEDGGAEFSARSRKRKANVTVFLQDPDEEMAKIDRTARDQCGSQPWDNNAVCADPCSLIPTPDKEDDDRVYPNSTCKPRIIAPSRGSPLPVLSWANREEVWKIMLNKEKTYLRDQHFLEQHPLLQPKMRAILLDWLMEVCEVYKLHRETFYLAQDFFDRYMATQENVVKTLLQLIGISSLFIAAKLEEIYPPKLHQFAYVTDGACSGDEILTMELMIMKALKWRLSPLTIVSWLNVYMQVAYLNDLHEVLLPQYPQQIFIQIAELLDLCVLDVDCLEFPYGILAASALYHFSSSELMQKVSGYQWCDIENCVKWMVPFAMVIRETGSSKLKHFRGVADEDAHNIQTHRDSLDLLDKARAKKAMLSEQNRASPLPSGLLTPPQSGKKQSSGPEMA
Experimental: as §1, §2
as §4, with “CDK3/cyclinE” for “CDK1/cyclinB”, “[γ-^33P-ATP]” for “[γ-^33p-ATP]”, “[γ-^33P-ATP].” for “[γ-33 P-ATP].”

MAPKAP-K2(h), sequence (P49137 whole entry): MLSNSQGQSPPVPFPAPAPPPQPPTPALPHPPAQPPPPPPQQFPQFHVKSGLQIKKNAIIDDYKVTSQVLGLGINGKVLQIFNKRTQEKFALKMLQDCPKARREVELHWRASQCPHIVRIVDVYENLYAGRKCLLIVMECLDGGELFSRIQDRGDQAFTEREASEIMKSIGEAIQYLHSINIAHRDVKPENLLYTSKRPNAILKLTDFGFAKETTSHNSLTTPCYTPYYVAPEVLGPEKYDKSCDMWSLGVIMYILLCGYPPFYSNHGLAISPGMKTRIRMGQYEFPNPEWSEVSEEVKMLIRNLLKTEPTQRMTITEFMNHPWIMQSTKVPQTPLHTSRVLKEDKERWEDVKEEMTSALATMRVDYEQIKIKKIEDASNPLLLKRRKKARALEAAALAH

Inhibitory activity (% of control), MAPKAP-K2(h) (MAPKAP-K2(h))	Inhibitory activity (% of control), MAPK2(h) (MAPK2(h))	Inhibitory activity (% of control), MSK1(h) (MSK1(h))	Inhibitory activity (% of control), IGF-1R(h) (IGF-1R(h))	Inhibitory activity (% of control), CDK1/cyclinB(h) (CDK1/cyclinB(h))	Inhibitory activity (% of control), AMPK(r) (AMPK(r))	Inhibitory activity (% of control), CDK3/cyclinE(h) (CDK3/cyclinE(h))	inhibitory activity against CDK1, in words (CDK1/cyclinB(h); summary of Table 2)	Compound
72 % of control	2 % of control	45 % of control	55 % of control	2 % of control	4 % of control	36 % of control		CC(C)Cc1nc(-c2ccc3[nH]nc(-c4ccc5cc(OCCN6CCCC6)ccc5c4)c3c2)n[nH]1 [CC002, 5-(5-Isobutyl-1H-[1,2,4]Triazol-3-yl)-3-[6-(2-Pyrrolidin-1-yl-Ethoxy)-Naphthalen-2-yl]-1H-Indazole]
108 % of control	1 % of control	76 % of control	96 % of control	1 % of control	54 % of control	39 % of control	good inhibitory activity	CC(C)(C)Cc1nc(-c2ccc3[nH]nc(-c4ccc5cc(OCc6ccccn6)ccc5c4)c3c2)n[nH]1 [CC004, 5-[5-(2,2-Dimethyl-propyl)-1H-[1,2,4]triazol-3-yl]-3-[6-(pyridine-2-ylmethoxy)-naphthalen-2-yl]-1H-indazole]
56 % of control	2 % of control	25 % of control	58 % of control	1 % of control	2 % of control	25 % of control		CCN1CCC[C@H]1COc1ccc2cc(-c3n[nH]c4ccc(-c5nc(CC(C)(C)C)n[nH]5)cc34)ccc2c1 [CC005, 2-[((2s)-1-ethylpyrrolidin-2-yl)methoxy]-6-{5-[3-(2,2-Dimethylpropyl)(1H-1,2,4,-triazol-5-yl)](1H-indazol-3-yl)}naphthalene]
96 % of control	3 % of control	72 % of control	65 % of control	3 % of control	74 % of control	15 % of control		Fc1ccc(-c2n[nH]c3ccc(-c4n[nH]c(C5CCCC5)n4)cc23)cc1 [CC006, 5-(5-Cyclopentyl-1H-[1,2,4]triazol-3-yl)-3-(4-fluoro-phenyl)-1H-indazole, reference compound]
86 % of control	3 % of control	89 % of control	88 % of control	26 % of control	74 % of control	73 % of control		O=C(NC1CCCC1)c1cccc(-c2n[nH]c3ccc(-c4nc[nH]n4)cc23)c1 [CC007, 3-(5-(1H-1,2,4-triazol-3-yl)(1H-indazol-3-yl))phenyl-N-cyclopentylcarboxamide, reference compound]

Compound	Inhibitory activity (% of control), MAPKAP-K2(h) (MAPKAP-K2(h))	Inhibitory activity (% of control), MAPK2(h) (MAPK2(h))	Inhibitory activity (% of control), MSK1(h) (MSK1(h))	Inhibitory activity (% of control), IGF-1R(h) (IGF-1R(h))	Inhibitory activity (% of control), CDK1/cyclinB(h) (CDK1/cyclinB(h))	Inhibitory activity (% of control), AMPK(r) (AMPK(r))	Inhibitory activity (% of control), CDK3/cyclinE(h) (CDK3/cyclinE(h))	inhibitory activity against CDK1, in words (CDK1/cyclinB(h); summary of Table 2)
COc1ccc2cc(-c3n[nH]c4ccc(-c5n[nH]c(CN6CCOCC6)n5)cc34)ccc2c1 [CC001, 3-(6-Methoxynaphthalen-2-yl)-5-(5-Morpholin-4-Ylmethyl-1H-[1,2,4]Triazol-3-yl)-1H-Indazole]	97 % of control	0 % of control	62 % of control	92 % of control	2 % of control	52 % of control	31 % of control	
